Source: patent US20080206198A1, “Compounds and methods for pharmico-gene therapy of epithelial sodium channel associated disorders” (priority 2003, published 2008)
Counter-ions that a name gives are not always drawn. Peptide text beside a SMILES is read from it.

Test system: polarized human airway epithelial cells
Assay: not given
Format: cell-based
Details: both ubiquitin ligase inhibitors combined, 2 mM pretreatment, 0.2 mM during infection
Method: Primary culture of human bronchial epithelia and reagents utilized. Primary human airway epithelial cells were collected by enzymatic digestion of bronchial samples from lung transplants, as previously described (Kondo et al., 1991; Zabner et al., 1996). Isolated primary airway cells were seeded at a density of 5×10^5 cells/cm^2 onto collagen-coated Millicell-HA culture inserts (Millipore Corp., Bedford, Mass.). Primary cultures were grown at the air-liquid interface for more than 2 weeks, by which time differentiation into a mucociliary epithelium occurs. The culture medium, used to feed only the basolateral side of the cells, contained 49% DMEM, 49% Ham's F12 and 2% Ultraser G (BioSepra, Cedex, France). Dimethyl Sulphoxide (DMSO), camptothecin (Camp), etoposide (Etop), aphidicolin (Aphi), hydroxyurea (HU) and genistein (Geni) were purchased from Sigma (St. Louis, Mo.). Tripeptidyl aldehyde proteasome inhibitors N-Acetyl-L-Leucyl-L-Leucyl-Norleucine (LLnL) and benzyloxycarbonyl-L-leucyl-L-leucyl-L-leucinal (Z-LLL) were purchased from Calbiochem-Novabiochem Corporation (La Jolla, Calif.). Ubiquitin ligase (E3) inhibitors were obtained from Bachem Bioscience Inc. (King of Prussia, Pa.). Anti-AAV capsid monoclonal antibody (Anti-VP1, 2 and 3) was purchased from American Research Products (Belmont, Mass.) and anti-ubiquitin antibody was purchased from Santa Cruz Biotechnology Inc. (Santa Cruz, Calif.).
Transduction of polarized airway epithelial cells and primary human fibroblasts. rAAV infection of fully differentiated bronchial cells was performed as described in Duan et al. (1998). For infections from the apical surface of the airway cells, 5 μl rAAV was mixed with 50 μl of culture media and applied directly onto the apical compartment of Millicell inserts (MOI=10,000 particles/cell). During apical infection, the basolateral side of the Millicell was continuously bathed in culture media. Gene transfer to the basal side was performed by inverting Millicell inserts and applying viral vector to the bottom of the supporting filter membrane in a 50 μl volume for 2 hours. Subsequently, Millicell inserts were returned to the upright position, in the continued presence of the original viral inoculum plus an additional 450 μl of media. For both apical and basolateral infections, rAAV containing media was removed after 24 hours and replaced with either fresh culture media (for the basal side) or exposed to air (for the apical side). To test the effect of different agents on the efficiency of AAV transduction in polarized airway cells, 1 μl of each solution was mixed with AAV prior to infection of airway epithelia. Agents were usually presented during the 24 hours AAV infection period unless indicated otherwise. Most of the agents were dissolved in DMSO except for hydroxyurea (dissolved in phosphate buffered saline), H-Leu-Ala-OH (dissolved in 0.9% glacial acetic acid) and H-His-Ala-OH (dissolved in 50% methanol). The working concentrations of the agents were as follows: 0.1 μM camptothecin, 10 μM etoposide, 5 μg/ml aphidicolin, 40 mM hydroxyurea, 50 μM genistein, 40 μM LLnL and 4 μM Z-LLL. When the ubiquitin ligase (E3) inhibitors (H-Leu-Ala-OH and H-His-Ala-OH) were used, airway cells were pretreated with a combination of both inhibitors at a final concentration of 2 mM for 60 minutes prior to infection, followed by the continued presence of inhibitor (0.2 mM) during the entire 24 hours infection period from the basolateral surface. Studies involving EGTA treatment were performed by transiently treating the apical membrane of polarized airway epithelia with 3 mM EGTA in water for 10 minutes (Duan et al., 1998). Following hypotonic EGTA treatment, cultures were washed twice with culture medium and infected with rAAV in the presence or absence of 40 μM LLnL. Human primary fibroblast cells (P4) were maintained in 10% fetal bovine serum (FBS), 1% penicillin and streptomycin, and 89% DMEM. […]

For `C[C@H](NC(=O)[C@@H](N)Cc1cnc[nH]1)C(=O)O` [H-His-Ala-OH] (H-His-Ala-OH), which “rAAV transduction from the basolateral surface” value is on record?
The value was “enhanced rAAV transduction from the basolateral surface”.

For `CC(C)C[C@H](N)C(=O)N[C@@H](C)C(=O)O` [H-Leu-Ala-OH] (H-Leu-Ala-OH), which “rAAV transduction from the basolateral surface” value is on record?
The value was “enhanced rAAV transduction from the basolateral surface”.

Same assay, conditions: data not shown

For `CC[C@@]1(O)C(=O)OCc2c1cc1n(c2=O)Cc2cc3ccccc3nc2-1` [camptothecin], which “rAAV transduction from the apical surface” value is on record?
Its value is “none of these agents facilitated rAAV transduction from the apical surface”.

`COc1cc([C@@H]2c3cc4c(cc3[C@@H](O[C@@H]3O[C@@H]5CO[C@@H](C)O[C@H]5[C@H](O)[C@H]3O)[C@H]3COC(=O)[C@H]23)OCO4)cc(OC)c1O` [etoposide] was tested. Which “rAAV transduction from the apical surface” value did it give?
The value was “none of these agents facilitated rAAV transduction from the apical surface”.

How did the “rAAV transduction from the apical surface” value turn out when `O=c1c(-c2ccc(O)cc2)coc2cc(O)cc(O)c12` [genistein] was run?
Its value is “none of these agents facilitated rAAV transduction from the apical surface”.

With `NC(=O)NO` [hydroxyurea] as the molecule, how does the “rAAV transduction from the apical surface” value read?
The value was “none of these agents facilitated rAAV transduction from the apical surface”.

Test system: primary human fibroblasts
Assay: not given
Format: cell-based
Details: confluent primary human fibroblasts treated prior to rAAV infection; FACS at 96 hours post-infection
Method: Initial studies were performed in confluent primary human fibroblasts since dose titrations and toxicity could be quickly assessed. Selected agents were used to treat fibroblast monolayers prior to rAAV infection. rAAV transduction was assessed at 96 hours post-infection by FACS analysis, and the percentage of dead cells was simultaneously assessed by incorporation of propidium iodide.
These tripeptides are structurally related to chloroquine but have different lipid solubility and specificity for cysteine proteases (Seglen, 1983). These molecules decrease endosomal degradation of molecules by a mechanism different than altering pH.

With `C[C@H]1CCC/C=C/[C@@H]2C[C@H](O)C[C@H]2[C@H](O)/C=C/C(=O)O1` [BFA, brefeldin A] as the molecule, how does the rAAV transduction read?
Its rAAV transduction is “significant enhancement of rAAV transduction”.

With `Cl.N` [NH4Cl] as the molecule, how does the rAAV transduction read?
The rAAV transduction was “significantly inhibited rAAV transduction”.

How did the rAAV transduction turn out when `CCN(CC)CCCC(C)Nc1ccnc2cc(Cl)ccc12` (stereo not drawn) [chloroquine] was run?
The rAAV transduction was “significantly inhibited rAAV transduction”.

With `C=C1[C@@H](C)[C@H]2[C@H](Cc3ccccc3)NC(=O)[C@]23OC(=O)/C=C/[C@H](O)CCC[C@@H](C)C/C=C/[C@H]3[C@@H]1O` [cytochalasin B] as the molecule, how does the rAAV transduction read?
The rAAV transduction was “significant decrease in rAAV transduction”.

For `CC[C@]1(O)C[C@@H]2CN(CCc3c([nH]c4ccccc34)[C@@](C(=O)OC)(c3cc4c(cc3OC)N(C)[C@H]3[C@@](O)(C(=O)OC)[C@H](OC(C)=O)[C@]5(CC)C=CCN6CC[C@]43[C@@H]65)C2)C1` [vinblastine, vinblastine sulfate], which rAAV transduction is on record?
Its rAAV transduction is “little effect on rAAV transduction”.

Test system: HeLa cells
Assay: AAV2 FLAG-Luc transduction of HeLa cells (luciferase screen)
Format: cell-based, human
Details: not given
Description: A. To screen for agents that enhance rAAV transduction, any number of cells can be used. A range of concentrations of the agent to be tested can be determined based on, for instance desirable profiles of the agent, desirable toxicity profiles of the agent and/or concentration of the agents employed in vivo. The usefulness of the cell type chosen for the screen can be confirmed by testing compounds, e.g., proteasome inhibitors such as LLnL and ZLL which are known to increase rAAV transduction. For example, a AAV2 FLAG-Luc vector was employed to transduce HeLa, ferret fibroblasts, IB3 and Huh (liver) cells in the presence or absence of the proteasome inhibitor MG132. MG132 was confirmed to enhance AAV transduction in all cell types tested: HeLa cell transduction was enhanced about 500-fold at 80 μM, and 200-fold at 40 μM, MG132; ferret fibroblast cell transduction was enhanced about 200-fold at 20 μM, and 17-fold at 4 μM, MG132; IB3-1 cell transduction was enhanced about 30 to 70-fold at 20 to 80 μM MG132; and Huh-7 cell transduction was enhanced about 15-fold at 20 to 80 μM MG132. There was no difference in rAAV transduction efficiency in HeLa cells when either DMSO or ETOH was used as a vehicle for MG132. B. HeLa cells were selected to screen for additional agents that enhance rAAV transduction, although any cell strain or line; or primary cells, may be employed. […] The range of concentrations of the agents to be tested were selected based on solubility profiles, toxicity profiles and/or concentrations previously employed in vivo.
HeLa cells were infected for 2 hours with an MOI of 100 rAAV in the presence of agents, e.g., ritonavir (Norvir) (1, 10 and 100 μM), cyclosporin A (2.5, 25 and 250 μg/ml), epoxomicin (1, 10 and 50 μM), alcacinomycin A (5, 50 or 500 μM), chymostatin (1, 10 and 100 μM), bestatin (1, 10 and 100 μM), doxorubicin (adriamycin) (0.1, 1 and 10 μM), camptothecin (camptosar) (1, 10 and 100 μM), eicosapentanoic acid (1, 10 and 100 μM), tannic acid (2, 20, 200 and 2000 μM), simvastatin, prodrug (2, 20 and 200 μM), cisplatin (0.2, 2 and 20 μg/mL), and chloroquine (4, 40 and 400 μM). Forty-eight hours after infection, cells were harvested for analysis. rAAV transduction was measured by removing the media from the cell cultures, adding 100 μL reporter lysis buffer (RLB) and freezing. The supernatant was thawed and transferred to microfuge tubes, freeze thawed an additional 2 times, clarified by centrifugation for 10 minutes and then analyzed for reporter gene expression on the lumometer. Protein was determined by Bradford analysis and results were expressed as relative light units per mg protein (RLU/mg).
Based on results with doxorubicin, a small number of FDA approved anthracyclines were tested for their relative in vitro and in vivo activities on AAV transduction. HeLa cells were infected with 100 ppc AAV2FLAG-Luc for 2 hours in the presence of different anthracyclines, e.g., doxorubicin, daunarubicin (Cerubidine), epirubicin (Ellence™), and idarubicin (Idamycin®), and cells harvested 48 hours later. The anthracyclines were pharmaceutical grade, and prepared according to the manufacturer's instructions. Prior to use, the agents were diluted in sterile water to an equal mass, e.g., 0.6 μg/mL, 3 μg/mL and 6 μg/mL. For example, 3 μg/mL idamycin increased luciferase expression by over 5000-fold while doxorubin increased luciferase expression by 58-fold. Generally, the potency was as follows: idarubicin>daunarubicin>epirubicin>doxorubicin.

`CC[C@H](C)C(=O)O[C@H]1C[C@@H](C)C=C2C=C[C@H](C)[C@H](CC[C@@H]3C[C@@H](O)CC(=O)O3)[C@H]21` [lovastatin] was tested. Which “result in cell line screening” value did it give?
Its value is “negative results”.

Same assay, conditions: 0.6, 3 and 6 μg/mL

`COc1cccc2c1C(=O)c1c(O)c3c(c(O)c1C2=O)C[C@@](O)(C(C)=O)C[C@@H]3O[C@H]1C[C@H](N)[C@H](O)[C@H](C)O1` [daunarubicin] was tested. Which “order of potency among anthracyclines” value did it give?
The value was “idarubicin>daunarubicin>epirubicin>doxorubicin”.

For `COc1cccc2c1C(=O)c1c(O)c3c(c(O)c1C2=O)C[C@@](O)(C(=O)CO)C[C@@H]3O[C@H]1C[C@H](N)[C@@H](O)[C@H](C)O1` [epirubicin], which “order of potency among anthracyclines” value is on record?
Its value is “idarubicin>daunarubicin>epirubicin>doxorubicin”.

Same assay, conditions: at the doses tested; MOI 100, 2 hours infection, harvest 48 hours

Which “increase in transduction efficiency” value does the source give for `CC[C@@]1(O)C(=O)OCc2c1cc1n(c2=O)Cc2cc3ccccc3nc2-1` [camptothecin] here?
Its value is 15 fold.

How did the “increase in transduction efficiency” value turn out when `N.N.[Cl][Pt][Cl]` [cisplatin] was run?
The value was 16 fold.

How did the “increase in transduction efficiency” value turn out when `CC[C@H](C)[C@H](NC(=O)[C@H]([C@@H](C)CC)N(C)C(C)=O)C(=O)N[C@H](C(=O)N[C@@H](CC(C)C)C(=O)[C@@]1(C)CO1)[C@@H](C)O` [epoxomicin] was run?
The value was ≤ 120 fold.

For `CCC(C)(C)C(=O)O[C@H]1C[C@@H](C)C=C2C=C[C@H](C)[C@H](CC[C@@H]3C[C@@H](O)CC(=O)O3)[C@H]21` [simvastatin], which “increase in transduction efficiency” value is on record?
The value was 4 fold.

`O=C(OC[C@H]1O[C@@H](OC(=O)c2cc(O)c(O)c(OC(=O)c3cc(O)c(O)c(O)c3)c2)[C@H](OC(=O)c2cc(O)c(O)c(OC(=O)c3cc(O)c(O)c(O)c3)c2)[C@@H](OC(=O)c2cc(O)c(O)c(OC(=O)c3cc(O)c(O)c(O)c3)c2)[C@@H]1OC(=O)c1cc(O)c(O)c(OC(=O)c2cc(O)c(O)c(O)c2)c1)c1cc(O)c(O)c(OC(=O)c2cc(O)c(O)c(O)c2)c1` [tannic acid] was tested. Which “increase in transduction efficiency” value did it give?
The value was 17 fold.

Same assay, conditions: dose ranges tested

How did the “dose dependence of transduction” value turn out when `CC[C@@]1(O)C(=O)OCc2c1cc1n(c2=O)Cc2cc3ccccc3nc2-1` [camptothecin] was run?
Its value is “dose-dependent increase in transduction”.

With `CC[C@H](C)[C@H](NC(=O)[C@H]([C@@H](C)CC)N(C)C(C)=O)C(=O)N[C@H](C(=O)N[C@@H](CC(C)C)C(=O)[C@@]1(C)CO1)[C@@H](C)O` [epoxomicin] as the molecule, how does the “dose dependence of transduction” value read?
Its value is “dose-dependent increase in transduction”.
